Legend:
[1] = Mouse Acute Oral Toxicity (LD50); details: in vivo, oral by stomach tube, single dose, mice observed for deaths over 14 days
Procedure: B) Mouse Acute Oral Toxicity (LD50)
Protocol: The test material is suspended in an aqueous vehicle containing carboxymethyl cellulose. A volume of 10 ml/kg body weight is used for each dose. The test material is given orally by stomach tube to 24 male Swiss-Webster mice, 6 per group, on the first day of the test, using doses of 250, 500, 1000 and 2000 mg./kg. body weight of test compound. Another group of 6 mice, receiving the vehicle only, serve as the control. The mice are observed for deaths over a 14-day period.

Albino rats = test: Heat Induced Dermal Trauma Assay; assay type: in vivo; details: topical in ethanol, treatment 0 post burn, skin disc weighed 3 hours later, 6 rats, control 500.7±13.6
Procedure: A) Heat Induced Dermal Trauma Assay ,
Test Animal: Albino rats, 120-140 g.
Procedure: The ventral area of the rats is shaved and depilated with a commercially available depilatory on the afternoon of the day prior to trauma. (The depilatory is applied for 15 minutes and then removed by washing with water.) The following day, a 25 mm diameter circle is traced on the abdomen beneath the sternum with a colored pen. A brass stamp of the same size, through which hot water (53°C) is circulated, is firmly applied to the center of the colored outline for 45 seconds while the rats are lightly anesthetized with ether. The test materials in ethanol are administered topically to the tramatized area immediately after withdrawing the stamp. The animals are sacrificed 3 hours later, at which time the ventral skin is removed and a piece of skin form the center of the marked area is punched out with a No. 10 cork bore and weighed.
End Point: The weight in mg of the inflammed piece of skin which is removed from the marked area with the cork bore.

SMILES | LD50 at 336 h [1] [mg/kg] | Mean Disc. Wt. mg.± S.E. (Albino rats; dose 0.006 mg.) [mg] | Mean Disc. Wt. mg.± S.E. (Albino rats; dose 0.025 mg.) [mg] | Mean Disc. Wt. mg.± S.E. (Albino rats; dose 0.1 mg.) [mg] | Mean Disc. Wt. mg.± S.E. (Albino rats; dose 0.4 mg.) [mg]
O=C(O)Cc1ccc2c(c1)[S+]([O-])Cc1ccccc1C2=O (stereo not shown) [6,11-dihydrodibenzo-[b.e]-thiepin-11-one-3-acetic S-oxide] | > 2000 |  |  |  | 
O=C(O)Cc1ccc2c(c1)SCc1cc(Cl)ccc1C2=O [8-chloro-6,11-dihydrodibenzo-[b.e.]-thiepin-11-one-3-acetic acid] | ~300 | 296.8 ± 21.8 | 218.8 ± 6.5 | 201.4 ± 12.0 | 147.2 ± 10.2
COc1ccc2c(c1)CSc1cc(CC(=O)O)ccc1C2=O [8-methoxy-6,11-dihydro-dibenzo-[b.e.]-thiepin-11-one-3-acetic acid] |  | 279.6 ± 13.17 | 241.6 ± 7.56 | 197.5 ± 25.07 | 177.9 ± 18.98
